Where “and” joins values, the source holds several entries; their conditions need not be identical. Identical values can stand only once. Inconclusive results and toxic doses are left out. Residues, ends and D or L forms follow the SMILES beside them. *: point of attachment. Cbz = O=C(OCc1ccccc1)*; Bn = c1ccc(C*)cc1; βAla = NCCC(=O)O
Tested on: BDF1 mice, P388 leukemia ip, median survival T/C
Test: NCI In Vivo Anticancer Drug Screen. Data for tumor model P388 Leukemia (intraperitoneal) in B6D2F1 (BDF1) mice
Conditions: endpoint: median survival time, higher = longer survival
In short: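 Steps: implant the tumour, treat one group with compound and another with vehicle, record survival, then divide treated by control.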

[1] = dose: 100.0 mg/kg/injection, schedule: Q04DX003 (ip), vehicle: Klucel (hydroxypropylcellulose) (HPC)
[2] = dose: 200.0 mg/kg/injection, schedule: Q04DX003 (ip), vehicle: Klucel (hydroxypropylcellulose) (HPC)
[3] = dose: 400.0 mg/kg/injection, schedule: Q04DX003 (ip), vehicle: Klucel (hydroxypropylcellulose) (HPC)
[4] = dose: 50.0 mg/kg/injection, schedule: Q04DX003 (ip), vehicle: Klucel (hydroxypropylcellulose) (HPC)
[5] = dose: 50.0 mg/kg/injection, schedule: Q01DX009 (ip), vehicle: saline with Tween-80
[6] = dose: 12.5 mg/kg/injection, schedule: Q01DX009 (ip), vehicle: saline with Tween-80
[7] = dose: 25.0 mg/kg/injection, schedule: Q01DX009 (ip), vehicle: saline with Tween-80

For `COc1cc2cc(c1Cl)N(C)C(=O)C[C@H](OC(=O)[C@H](C)N(C)C(C)=O)[C@]1(C)O[C@H]1[C@H](C)[C@@H]1C[C@@](O)(NC(=O)O1)[C@H](OC)C=C/C=C(\C)C2`, the T/C (dose: 1.6 micrograms/kg/injection, schedule: Q01DX009 (ip), vehicle: saline) was 155 % of control, the T/C (dose: 2.0 micrograms/kg/injection, schedule: Q08DX002 (ip), vehicle: saline) was 104 % of control and the T/C (dose: 3.1 micrograms/kg/injection, schedule: Q01DX009 (ip), vehicle: saline) was 165 % of control. For the same molecule, the T/C (dose: 4.0 micrograms/kg/injection, schedule: Q08DX002 (ip), vehicle: saline) was 111 % of control and 117 % of control, the T/C (dose: 6.2 micrograms/kg/injection, schedule: Q01DX009 (ip), vehicle: saline) was 195 % of control and the T/C (dose: 8.0 micrograms/kg/injection, schedule: Q08DX002 (ip), vehicle: saline) was 122 % of control and 123 % of control. For the same molecule, the T/C (dose: 10.0 micrograms/kg/injection, schedule: Q03HX024 (ip), vehicle: saline) was 194 % of control, the T/C (dose: 12.5 micrograms/kg/injection, schedule: Q01DX009 (ip), vehicle: saline) was 190 % of control and the T/C (dose: 15.0 micrograms/kg/injection, schedule: Q03HX024 (ip), vehicle: saline) was 238 % of control. The T/C (dose: 20.0 micrograms/kg/injection, schedule: Q03HX024 (ip), vehicle: saline) was 176 % of control, the T/C (dose: 25.0 micrograms/kg/injection, schedule: Q01DX009 (ip), vehicle: saline) was 220 % of control and the T/C (dose: 25.0 micrograms/kg/injection, schedule: Q03HX024 (ip), vehicle: saline) was 188 % of control. For the same molecule, the T/C (dose: 30.0 micrograms/kg/injection, schedule: Q03HX024 (ip), vehicle: saline) was 527 % of control, the T/C (dose: 32.0 micrograms/kg/injection, schedule: Q08DX002 (ip), vehicle: clinical formulation) was 191 % of control and the T/C (dose: 35.0 micrograms/kg/injection, schedule: Q03HX024 (ip), vehicle: saline) was 194 % of control. The T/C (dose: 40.0 micrograms/kg/injection, schedule: Q03HX024 (ip), vehicle: saline) was 188 % of control, the T/C (dose: 50.0 micrograms/kg/injection, schedule: Q04DX003 (ip), vehicle: clinical formulation) was 203 % of control and the T/C (dose: 54.0 micrograms/kg/injection, schedule: Q04DX003 (ip), vehicle: clinical formulation) was 192 % of control. The T/C (dose: 64.0 micrograms/kg/injection, schedule: Q08DX002 (ip), vehicle: clinical formulation) was 155 % of control and 169 % of control, the T/C (dose: 64.0 micrograms/kg/injection, schedule: Q08DX002 (ip), vehicle: saline) was 163 % of control and the T/C (dose: 90.0 micrograms/kg/injection, schedule: Q04DX003 (ip), vehicle: clinical formulation) was 200 % of control. For the same molecule, the T/C (dose: 100.0 micrograms/kg/injection, schedule: Q04DX003 (ip), vehicle: clinical formulation) was 183 % of control, the T/C (dose: 108.0 micrograms/kg/injection, schedule: Q04DX003 (ip), vehicle: saline) was 172 % of control and the T/C (dose: 128.0 micrograms/kg/injection, schedule: Q08DX002 (ip), vehicle: clinical formulation) was 167 % of control and 182 % of control. For the same molecule, the T/C (dose: 128.0 micrograms/kg/injection, schedule: Q08DX002 (ip), vehicle: saline) was 183 % of control and 193 % of control, the T/C (dose: 150.0 micrograms/kg/injection, schedule: Q04DX003 (ip), vehicle: clinical formulation) was 224 % of control and the T/C (dose: 180.0 micrograms/kg/injection, schedule: Q04DX003 (ip), vehicle: saline) was 159 % of control. For the same molecule, the T/C (dose: 200.0 micrograms/kg/injection, schedule: Q04DX003 (ip), vehicle: clinical formulation) was 194 % of control, the T/C (dose: 250.0 micrograms/kg/injection, schedule: Q04DX003 (ip), vehicle: clinical formulation) was 224 % of control and the T/C (dose: 256.0 micrograms/kg/injection, schedule: Q08DX002 (ip), vehicle: clinical formulation) was 197 % of control and 204 % of control. For the same molecule, the T/C (dose: 256.0 micrograms/kg/injection, schedule: Q08DX002 (ip), vehicle: saline) was 203 % of control and 219 % of control, the T/C (dose: 300.0 micrograms/kg/injection, schedule: Q04DX003 (ip), vehicle: saline) was 180 % of control and the T/C (dose: 512.0 micrograms/kg/injection, schedule: Q08DX002 (ip), vehicle: clinical formulation) was 227 % of control. For the same molecule, the T/C (dose: 512.0 micrograms/kg/injection, schedule: Q08DX002 (ip), vehicle: saline) was 272 % of control and 219 % of control, the T/C (dose: 1024.0 micrograms/kg/injection, schedule: Q08DX002 (ip), vehicle: clinical formulation) was 242 % of control and the T/C (dose: 1024.0 micrograms/kg/injection, schedule: Q08DX002 (ip), vehicle: saline) was 88 % of control and 117 % of control.

In the case of `S=P(Oc1ccccc1)(N1CC1)N1CC1`, the T/C (dose: 100.0 mg/kg/injection, schedule: Q01DX007 (ip), vehicle: DMSO) was 88 % of control, the T/C [1] was 100 % of control and the T/C [2] was 108 % of control. For the same molecule, the T/C [3] was 100 % of control.

In the case of `CCCNC(=O)OCc1c(COC(=O)NCCC)c(-c2ccc(Cl)c(Cl)c2)n2c1CCC2`, the T/C (dose: 25.0 mg/kg/injection, schedule: Q01DX009 (ip), vehicle: other) was 151 % of control and the T/C (dose: 50.0 mg/kg/injection, schedule: Q01DX009 (ip), vehicle: other) was 172 % of control.

`CCCCCCC(C)NN` (centres undefined) was tested, and the T/C (dose: 12.5 mg/kg/injection, schedule: Q04DX003 (ip), vehicle: saline) was 98 % of control, the T/C (dose: 25.0 mg/kg/injection, schedule: Q04DX003 (ip), vehicle: saline) was 105 % of control and the T/C (dose: 50.0 mg/kg/injection, schedule: Q04DX003 (ip), vehicle: saline) was 107 % of control.

For `COC(=O)C(CSCc1ccccc1)NC(=O)C(CSCc1ccccc1)NC(=O)CCNC(=O)OCc1ccccc1` (centres undefined) ({Cbz-βAla}-Cys(Bn)-Cys(Bn)-OMe; configuration not given here), the T/C (dose: 25.0 mg/kg/injection, schedule: Q04DX003 (ip), vehicle: Klucel (hydroxypropylcellulose) (HPC)) was 102 % of control, the T/C [4] was 100 % of control and the T/C [1] was 95 % of control. The T/C [2] was 93 % of control and the T/C [3] was 93 % of control.

`NC(=O)CC(NC(=O)CCl)C(=O)O` (centres undefined) was tested, and the T/C (dose: 100.0 mg/kg/injection, schedule: Q04DX003 (ip), vehicle: saline with Tween-80) was 90 % of control, the T/C (dose: 200.0 mg/kg/injection, schedule: Q04DX003 (ip), vehicle: saline with Tween-80) was 90 % of control and the T/C (dose: 400.0 mg/kg/injection, schedule: Q04DX003 (ip), vehicle: saline with Tween-80) was 86 % of control.

`Cc1nc2ccccc2nc1CC(=O)c1ccccc1` was tested, and the T/C [5] was 112 % of control, the T/C (dose: 100.0 mg/kg/injection, schedule: Q01DX009 (ip), vehicle: saline with Tween-80) was 104 % of control and the T/C (dose: 200.0 mg/kg/injection, schedule: Q01DX009 (ip), vehicle: saline with Tween-80) was 99 % of control.

With `FC(F)(F)c1nnn[n-]1.[Au+].c1ccc([PH+](c2ccccc2)c2ccccc2)cc1` the T/C (dose: 25.0 mg/kg/injection, schedule: Q01DX001 (ip), vehicle: saline with Tween-80) was 100 % of control and the T/C (dose: 50.0 mg/kg/injection, schedule: Q01DX001 (ip), vehicle: saline with Tween-80) was 102 % of control.

In the case of `COC1=C(N)C(=O)c2nc(-c3nc(C=O)c(C)c(-c4ccc(OC)c(OC)c4O)c3N)ccc2C1=O`, the T/C (dose: 0.8 mg/kg/injection, schedule: Q01DX009 (ip), vehicle: dioxane) was 104 % of control, the T/C (dose: 1.05 mg/kg/injection, schedule: Q01DX009 (ip), vehicle: dioxane) was 122 % of control and the T/C (dose: 1.55 mg/kg/injection, schedule: Q01DX009 (ip), vehicle: dioxane) was 99 % of control. For the same molecule, the T/C (dose: 2.55 mg/kg/injection, schedule: Q01DX009 (ip), vehicle: dioxane) was 107 % of control, the T/C (dose: 3.05 mg/kg/injection, schedule: Q01DX009 (ip), vehicle: dioxane) was 104 % of control and the T/C (dose: 4.05 mg/kg/injection, schedule: Q01DX009 (ip), vehicle: dioxane) was 109 % of control. For the same molecule, the T/C (dose: 5.05 mg/kg/injection, schedule: Q01DX009 (ip), vehicle: dioxane) was 118 % of control.

For `C=C(CN(CC(=C)C(=O)c1ccccc1)C(C)(C)C)C(=O)c1ccccc1`, the T/C (dose: 6.25 mg/kg/injection, schedule: Q01DX009 (ip), vehicle: saline with Tween-80) was 106 % of control, the T/C [6] was 111 % of control and the T/C [7] was 103 % of control.

`Fc1ccc(P(c2ccc(F)cc2)c2ccc(F)cc2)cc1` was tested, and the T/C (dose: 3.12 mg/kg/injection, schedule: Q01DX009 (ip), vehicle: Klucel (hydroxypropylcellulose) (HPC)) was 92 % of control, the T/C (dose: 6.25 mg/kg/injection, schedule: Q01DX009 (ip), vehicle: Klucel (hydroxypropylcellulose) (HPC)) was 92 % of control and the T/C (dose: 12.5 mg/kg/injection, schedule: Q01DX009 (ip), vehicle: Klucel (hydroxypropylcellulose) (HPC)) was 107 % of control. The T/C (dose: 25.0 mg/kg/injection, schedule: Q01DX009 (ip), vehicle: Klucel (hydroxypropylcellulose) (HPC)) was 100 % of control, the T/C (dose: 50.0 mg/kg/injection, schedule: Q01DX009 (ip), vehicle: Klucel (hydroxypropylcellulose) (HPC)) was 96 % of control and the T/C [4] was 100 % of control. For the same molecule, the T/C [1] was 87 % of control and the T/C [2] was 95 % of control.

`Nc1ccc(S(=O)(=O)N/N=C/c2ccccc2Cl)cc1` was tested, and the T/C [6] was 96 % of control, the T/C [7] was 96 % of control and the T/C [5] was 92 % of control.

— PubChem BioAssay AID328 (DTP/NCI, 2004)
